Assay results published in patent publication US10758620B2, “Potentiated antimicrobial agents” (SEPTEOS, priority 2014, dated 2020).
≈ marks a conversion by molar mass, not a printed value. Where two headings read alike, the source gives them in different places.

Legend:
MSSA 8237 = assay: Etest, staphylococci MSSA 8237; type: cell-based; conditions: MSSA 8237
Excerpt: (§1) The corresponding tests are made based on the usual MIC test: the Etest® (Biomerieux) strip is deposited onto the surface of a seeded agar medium in which the booster has been incorporated. This test enables solvent effect risks, that is a possible interaction with the solvent used in vitro, to be minimised.
(§2) The control corresponds to the test made without cineol. A control is made in each solvent tested: distilled water, Tween/water and DMSO.
(§3) ED control=antibiotic alone in distilled water
(§4) DMSO control=antibiotic alone in DMSO
(§5) TE control=antibiotic alone in Tween® 80

MRSA 10178 = assay: Etest, staphylococci MRSA 10178; type: cell-based
Excerpt: as §1, §2, §3, §4, §5

E. Coli Strain 8150 = assay: Etest, E. Coli Strain 8150; type: cell-based; conditions: Escherichia coli, Strain 8150
Excerpt: as §1, §2, §3, §4, §5

E. Coli Strain 08138 = assay: Etest, E. Coli Strain 08138; type: cell-based; conditions: Escherichia coli, Strain 08138
Excerpt: as §1, §2, §3, §4, §5

[1] = test system: Strain 10168, methicillin resistant S. aureus (MRSA); assay: Resistance test (resistant mutants), Strain 10168; type: cell-based; conditions: Strain 10168, DMSO, 4 times the MIC, 48 h incubation, combinations 64/100
Description: (§6) After 48 h incubation, the presence or absence of colonies likely to be resistant mutants is observed.
(§7) ED control or DMSO=only distilled water or DMSO is added
(§8) Ciprofloxacine DMSO: addition of Ciprofloxacine in DMSO

[2] = test system: Strain 09003, methicillin resistant S. aureus (MRSA); assay: Resistance test (resistant mutants), Strain 09003; type: cell-based; conditions: Strain 09003, DMSO, 4 times the MIC, 48 h incubation, combinations 64/100
Description: as §6, §7, §8

Staphylococcus = assay: MIC measurement in agar medium (dilution test), Staph; type: cell-based; conditions: Staphylococcus, read-out: MIC of the amox alone; staphylococci
Excerpt: Inhibitory minimum concentration measurement tests are made in a solid agar medium according to international standards in force (CLSI M7-A9 Jan 12 standards): dispersion of the compounds to be tested in a Mueller Hinton gelose. An adaptation relating to the hydrophobicity of compounds and compositions is however necessary to disperse them in the medium: dilution of the compounds in a solvent. The compounds and compositions incorporated in the agar medium can be diluted beforehand in one or more solvents (Tween® 80 diluted with water, Tween® 80 diluted with […], DMSO diluted with water). The strains are deposited onto the agar surface with a steers apparatus. In the examples, different dissolution methods for products are tested in parallel to circumvent the problems of water/solvent distribution coefficient of the molecules (antimicrobial and potentiator) whereas the bacteria grow only in the aqueous phase. The technical requirement will not intervene in in vivo tests. The same dilution methods can be implemented in a liquid medium (microplates and tubes). The same methodology is implemented with fungi. […] MIC measurement: the minimum inhibitory concentration measurement tests are made in an agar solid medium according to international standards in force (CLSI standards), according to the previously defined protocol. […] The booster contribution as compared with the MIC of the antibiotic alone is expressed in a (MIC ATB)/(MIC ATB+booster) ratio. Thereby, gains are defined: […]

candidas = assay: MIC measurement (dilution test) on yeast strains; type: cell-based, Candida; conditions: Candida; read-out: MIC of sertaconazole alone
Excerpt: Inhibitory minimum concentration measurement tests are made in a solid agar medium according to international standards in force (CLSI M7-A9 Jan 12 standards): dispersion of the compounds to be tested in a Mueller Hinton gelose. An adaptation relating to the hydrophobicity of compounds and compositions is however necessary to disperse them in the medium: dilution of the compounds in a solvent. The compounds and compositions incorporated in the agar medium can be diluted beforehand in one or more solvents (Tween® 80 diluted with water, Tween® 80 diluted with […], DMSO diluted with water). The strains are deposited onto the agar surface with a steers apparatus. In the examples, different dissolution methods for products are tested in parallel to circumvent the problems of water/solvent distribution coefficient of the molecules (antimicrobial and potentiator) whereas the bacteria grow only in the aqueous phase. The technical requirement will not intervene in in vivo tests. The same dilution methods can be implemented in a liquid medium (microplates and tubes). The same methodology is implemented with fungi. […] MIC measurement: the minimum inhibitory concentration measurement tests are made in an agar solid medium according to international standards in force (CLSI standards), according to the previously defined protocol. […] The booster contribution as compared with the MIC of the antibiotic alone is expressed in a (MIC ATB)/(MIC ATB+booster) ratio. Thereby, gains are defined: […] The yeast strains tested (n=33) belong to the […] albicans, Candida tropicalis, Candida krusei, Candida parapsilosis, Candida glabrata species.

[3] = orally, rats; cited from earlier work
[4] = orally, cats; cited from earlier work
Pseudomonas Strain 08131 = assay: Etest, Pseudomonas Strain 08131; type: cell-based; conditions: Pseudomonas, STRAIN08131, Strain 08131, read-out: MIC
Excerpt: as §1, §2, §3, §4, §5

Pseudomonas Strain 08132 = assay: Etest, Pseudomonas Strain 08132; type: cell-based
Excerpt: as §1, §2, §3, §4, §5

[5] = Staphylococcus aureus, MSSA, DMSO control = antibiotic alone in DMSO, read-out: MIC
[6] = Staphylococcus aureus, MSSA, ED control = antibiotic alone in distilled water, read-out: MIC
[7] = Staphylococcus aureus, MSSA, Tween water control = antibiotic alone, read-out: MIC
[8] = DMSO control = antibiotic alone in DMSO
[9] = ED control = antibiotic alone in distilled water
[10] = Tween water control = antibiotic alone

Q: Which results are given for `CO[C@@]1(NC(=O)Cc2cccs2)C(=O)N2C(C(=O)O)=C(COC(N)=O)CS[C@@H]21` [Cefoxitine, reference compound]?
A: MIC (MSSA 8237; [5]): 6 µg/mL (≈ 14 µM); MIC (MSSA 8237; [6]): 6 µg/mL (≈ 14 µM); MIC (MSSA 8237; [7]): 6 µg/mL (≈ 14 µM); MIC (MRSA 10178; Staphylococcus aureus, MRSA, MRSA 10178, DMSO control = antibiotic alone in DMSO, read-out: MIC): 6 µg/mL (≈ 14 µM); MIC (MRSA 10178; Staphylococcus aureus, MRSA, MRSA 10178, ED control = antibiotic alone in distilled water, read-out: MIC): 6 µg/mL (≈ 14 µM); MIC (MRSA 10178; Staphylococcus aureus, MRSA, MRSA 10178, Tween water control = antibiotic alone, read-out: MIC): 4 µg/mL (≈ 9.36 µM)

Q: Which MIC (MSSA 8237; [8]) does the source give for `CC1(C)S[C@@H]2[C@H](NC(=O)Cc3ccccc3)C(=O)N2[C@H]1C(=O)O` [Penicillin G, reference compound] here?
A: 1.5 µg/mL (≈ 4.49 µM)

Q: What about the MIC (MSSA 8237; [9]) of the same molecule?
A: 1 µg/mL (≈ 2.99 µM)

Q: And the MIC (MSSA 8237; [10])?
A: 0.5 µg/mL (≈ 1.5 µM)

Q: Which results are given for `CN(C)c1cc(NC(=O)CNC(C)(C)C)c(O)c2c1C[C@H]1C[C@H]3[C@H](N(C)C)C(O)=C(C(N)=O)C(=O)[C@@]3(O)C(O)=C1C2=O` [Tigecycline, reference compound]?
A: MIC (E. Coli Strain 8150; [8]): 0.19 µg/mL (≈ 0.324 µM); MIC (E. Coli Strain 8150; [9]): 0.125 µg/mL (≈ 0.213 µM); MIC (E. Coli Strain 8150; [10]): 0.125 µg/mL (≈ 0.213 µM); MIC (E. Coli Strain 08138; [8]): 0.38 µg/mL (≈ 0.649 µM); MIC (E. Coli Strain 08138; [9]): 0.38 µg/mL (≈ 0.649 µM); MIC (E. Coli Strain 08138; [10]): 0.38 µg/mL (≈ 0.649 µM); MIC (MRSA 10178; MRSA 10178, ED control = antibiotic alone in distilled water): 0.125 µg/mL (≈ 0.213 µM); MIC (MRSA 10178; MRSA 10178, Tween water control = antibiotic alone): 0.125 µg/mL (≈ 0.213 µM); MIC (MRSA 10178; Staphylococcus aureus, MRSA): 0.125 µg/mL (≈ 0.213 µM)

Q: Which “colonies likely to be resistant mutants” value [1] does the source give for `O=C(O)c1cn(C2CC2)c2cc(N3CCNCC3)c(F)cc2c1=O` [Ciprofloxacine, ciprofloxacine, reference compound] here?
A: invaded

Q: What about the “colonies likely to be resistant mutants” value ([1]; listed as ciprofloxacine) of the same molecule?
A: many mutants

Q: And the “colonies likely to be resistant mutants” value [2]?
A: numerous

Q: What about the “colonies likely to be resistant mutants” value ([2]; listed as ciprofloxacine) of the same molecule?
A: many mutants

Q: With `CC1(C)S[C@@H]2[C@H](NC(=O)[C@H](N)c3ccc(O)cc3)C(=O)N2[C@H]1C(=O)O` [amox, amoxicillin, reference compound] as the molecule, how does the MIC (Staphylococcus) read?
A: 0.25 to 32 µg/mL

Q: Which MIC (candidas) does the source give for `Clc1ccc(C(Cn2ccnc2)OCc2csc3c(Cl)cccc23)c(Cl)c1` (centres unmarked) [sertaconazole, reference compound] here?
A: 0.06 to 16 µg/mL

Q: For `Cc1ccc(C(C)C)cc1O` [carvacrol], which lowest lethal dose [3] is on record?
A: 100 mg/kg

Q: And the lowest lethal dose [4]?
A: 100 mg/kg

Q: Which results are given for `C[C@@H](O)[C@H]1C(=O)N2C(C(=O)O)=C(S[C@@H]3CN[C@H](C(=O)N(C)C)C3)[C@H](C)[C@H]12` [Meropenem, reference compound]?
A: MIC (Pseudomonas Strain 08131; [8]): 2 µg/mL (≈ 5.22 µM); MIC (Pseudomonas Strain 08131; [9]): 1.5 µg/mL (≈ 3.91 µM); MIC (Pseudomonas Strain 08131; [10]): 2 µg/mL (≈ 5.22 µM); MIC (MSSA 8237; [5]): 0.25 µg/mL (≈ 0.652 µM); MIC (MSSA 8237; [6]): 0.19 µg/mL (≈ 0.495 µM); MIC (MSSA 8237; [7]): 0.25 µg/mL (≈ 0.652 µM); MIC (Pseudomonas Strain 08132; [8]): 12 µg/mL (≈ 31.3 µM); MIC (Pseudomonas Strain 08132; Pseudomonas, STRAIN08132, ED control = antibiotic alone in distilled water, read-out: MIC): 12 µg/mL (≈ 31.3 µM); MIC (Pseudomonas Strain 08132; [10]): 12 µg/mL (≈ 31.3 µM)
